From patent US10323000B2, “Indole derivatives and their use in neurodegenerative diseases” (priority 2014, dated 2019)
Where two headings read alike, the source gives them in different places.

What was measured:
human P2X7 receptor = human P2X7 receptor (Homo sapiens (Human), UniProt Q99572); assay: Pore permeation assay (YO PRO dye uptake); assay type: cell-based
[1] = target: P2X7 (IL-1β release from THP-1 cells) (Homo sapiens (Human), UniProt Q99572); assay: IL-1β release assay; assay type: cell-based
Sequence of P2X7 (IL-1β release from THP-1 cells) (Q99572 whole entry): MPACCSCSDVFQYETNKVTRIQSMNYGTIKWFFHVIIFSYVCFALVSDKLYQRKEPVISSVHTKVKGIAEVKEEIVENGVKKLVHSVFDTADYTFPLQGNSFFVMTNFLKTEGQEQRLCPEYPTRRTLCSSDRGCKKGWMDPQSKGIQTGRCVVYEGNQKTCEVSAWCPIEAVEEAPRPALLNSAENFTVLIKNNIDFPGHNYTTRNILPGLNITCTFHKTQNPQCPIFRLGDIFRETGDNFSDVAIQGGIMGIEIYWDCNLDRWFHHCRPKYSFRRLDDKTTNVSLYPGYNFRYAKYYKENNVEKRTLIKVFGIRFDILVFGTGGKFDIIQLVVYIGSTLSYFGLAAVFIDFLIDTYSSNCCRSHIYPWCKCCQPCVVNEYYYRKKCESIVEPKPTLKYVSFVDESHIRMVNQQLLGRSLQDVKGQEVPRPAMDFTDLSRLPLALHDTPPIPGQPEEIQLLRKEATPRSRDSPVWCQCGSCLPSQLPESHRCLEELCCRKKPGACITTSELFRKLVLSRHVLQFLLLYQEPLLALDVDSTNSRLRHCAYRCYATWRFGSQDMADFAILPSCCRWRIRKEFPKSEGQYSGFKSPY
Experimental: IL-1β release assay: The activation of P2X7 by ATP leads to a fast transient activation of cells resulting in influx of Ca^2+ followed by conversion of pro-IL-1β to active IL-1β. The functional activity of P2X7 compounds was measured by the release of mature […] in the culture medium of THP-1 cells, detected by sandwich ELISA. […] THP-1 cells were harvested from the flask in 50 ml by centrifugation for 3 min at 100 g. The cells were resuspended to 2×10^5 cells/ml in medium supplemented with 0.5 μM PMA and incubated. The cells were washed and resuspended to 1.5×10^5 cells/ml in medium complemented with 10 ng/ml LPS, and the cells were primed for 4 h at 37° C., 5% CO2. After addition of 20 μL of prediluted test compounds, blank, standard and control reagents, cells were incubated for a further 20 min at 37° C. and stimulated with 0.8 mM BzATP for 30 minutes. The cells were centrifuged, supernatant was collected and the presence of mature IL-1β was detected using Dual human IL-1b kit following manufacturer's instruction. The tetrahydrobenzodiazepine analogs effectively modulated the activity of P2X7 in the cells as measured by the levels of pro-inflammatory cytokine IL-1β, which is released by the activation of P2X7 receptor.

[2] = HEK293 transfected with human P2X7, BzATP 10 uM, YO PRO dye uptake, read-out: hP2X7 IC50
[3] = THP-1 cells, LPS primed, 0.8 mM BzATP, mature IL-1β by sandwich ELISA, read-out: hTHP-1/IL-ib IC50

Sequence of human P2X7 receptor (Q99572 whole entry): as above

Row | SMILES | IC50 (human P2X7 receptor; [2]) | IC50 [1] | IC50 (human P2X7 receptor) | IC50 [1, 3]
1 | O=C(NCCC1CCCC1)c1cn(C2COC2)c2cccc(Cl)c12 [Compound 82, 4-Chloro-1-oxetan-3-yl-1H-indole-3-carboxylic acid (2-cyclopentyl-ethyl)-amide] | < 10 nM | 101 to 500 nM | – | –
2 | CC1CCCC(O)(CNC(=O)c2cn(C3COC3)c3cccc(Cl)c23)C1 (centres unmarked) [Compound 83, 4-chloro-N-((1-hydroxy-3-methylcyclohexyl)methyl)-1-(oxetan-3-yl)-1H-indole-3-carboxamide] | < 10 nM | 10 to 100 nM | – | –
3 | O=C(NC[C@@]1(O)CCCC(F)(F)C1)c1cn(C2COC2)c2cccc(Cl)c12 [Compound 84, (R)-4-chloro-N-((3,3-difluoro-1-hydroxycyclohexyl)methyl)-1-(oxetan-3-yl)-1H-indole-3-carboxamide] | – | 101 to 500 nM | 101 to 500 nM | –
4 | O=C(NC[C@]1(O)CCCC(F)(F)C1)c1cn(C2COC2)c2cccc(Cl)c12 [Compound 85, (S)-4-chloro-N-((3,3-difluoro-1-hydroxycyclohexyl)methyl)-1-(oxetan-3-yl)-1H-indole-3-carboxamide] | – | 10 to 100 nM | 10 to 100 nM | –
5 | O=C(NC[C@@H]1CCCC[C@H]1O)c1cn(C2COC2)c2cccc(Cl)c12 [Compound 87] | – | – | 101 to 500 nM | > 1000 nM
6 | O=C(NC[C@H]1CCCC[C@H]1O)c1cn(C2COC2)c2cccc(Cl)c12 [Compound 88, cis-4-Chloro-1-oxetan-3-yl-1H-indole-3-carboxylic acid ((1R,2R)-2-hydroxy-cyclohexylmethyl)-amide] | – | – | 101 to 500 nM | > 1000 nM
7 | CC1CC(F)(F)CC(O)(CNC(=O)c2cn(C3COC3)c3cccc(Cl)c23)C1 (centres unmarked) [Compound 89, 4-chloro-N-((3,3-difluoro-1-hydroxy-5-methylcyclohexyl)methyl)-1-(oxetan-3-yl)-1H-indole-3-carboxamide] | – | 500 to 999 nM | 101 to 500 nM | –
8 | C[C@H]1CCC[C@@](O)(CNC(=O)c2cn(C3COC3)c3cccc(Cl)c23)C1 [Compound 90, 4-chloro-N-(((1S,3S)-1-hydroxy-3-methylcyclohexyl)methyl)-1-(oxetan-3-yl)-1H-indole-3-carboxamide] | < 10 nM | 10 to 100 nM | – | –
9 | O=C(NCC1CC(C(F)(F)F)CC(F)(F)C1)c1cn(C2COC2)c2cccc(Cl)c12 (centres unmarked) [Compound 91, 4-chloro-N-((3,3-difluoro-5-(trifluoromethyl)cyclohexyl)methyl)-1-(oxetan-3-yl)-1H-indole-3-carboxamide] | – | 101 to 500 nM | 10 to 100 nM | –
10 | O=C(NCC1(O)CCC(F)(F)CC1)c1cn(C2COC2)c2cccc(Cl)c12 [Compound 92, 4-chloro-N-((4,4-difluoro-1-hydroxycyclohexyl)methyl)-1-(oxetan-3-yl)-1H-indole-3-carboxamide] | – | 101 to 500 nM | 10 to 100 nM | –
11 | C[C@@H]1CCC[C@](O)(CNC(=O)c2cn(C3COC3)c3cccc(Cl)c23)C1 [Compound 93, 4-chloro-N-(((1R,3R)-1-hydroxy-3-methylcyclohexyl)methyl)-1-(oxetan-3-yl)-1H-indole-3-carboxamide] | < 10 nM | 10 to 100 nM | – | –
12 | O=C(NCC1CCC(F)(F)CC1)c1cn(C2COC2)c2cccc(Cl)c12 [Compound 94, 4-chloro-N-((4,4-difluorocyclohexyl)methyl)-1-(oxetan-3-yl)-1H-indole-3-carboxamide] | – | 10 to 100 nM | 10 to 100 nM | –
13 | O=C(NCC1CCC(F)(F)CC1)c1cn(CCOC(F)F)c2cccc(Cl)c12 [Compound 95, 4-chloro-N-((4,4-difluorocyclohexyl)methyl)-1-(2-(difluoromethoxy)ethyl)-1H-indole-3-carboxamide] | – | 101 to 500 nM | 10 to 100 nM | –
14 | O=C(NCC1(O)CCC(F)(F)CC1)c1cn(C2CCCO2)c2cccc(Cl)c12 (centres unmarked) [Compound 98, 4-chloro-N-((4,4-difluoro-1-hydroxycyclohexyl)methyl)-1-(tetrahydrofuran-2-yl)-1H-indole-3-carboxamide] | – | 101 to 500 nM | 101 to 500 nM | –
15 | O=C(NCC1(O)CCCC(C(F)(F)F)C1)c1cn(C2CCOC2)c2cccc(Cl)c12 (centres unmarked) [Compound 100, 4-chloro-N-((1-hydroxy-3-(trifluoromethyl)cyclohexyl)methyl)-1-(tetrahydrofuran-3-yl)-1H-indole-3-carboxamide] | > 1000 nM | – | – | > 1000 nM
16 | O=C(NCC1CCCCC1)c1cn(C2CCOC2)c2cccc(Cl)c12 (centres unmarked) [Compound 101, 4-chloro-N-(cyclohexylmethyl)-1-(tetrahydrofuran-3-yl)-1H-indole-3-carboxamide] | – | 500 to 999 nM | 101 to 500 nM | –

Row | SMILES | IC50 (human P2X7 receptor; [2]) | IC50 [1] | IC50 (human P2X7 receptor) | IC50 [1, 3]
17 | O=C(NCC1C[C@@H]2CC[C@H]1C2)c1cn(C2CCOC2)c2cccc(Cl)c12 (stereo partly drawn) [Compound 105, 4-Chloro-1-(tetrahydro-furan-3-yl)-1H-indole-3-carboxylic acid ((1S,4R)-1-bicyclo[2.2.1]hept-2-ylmethyl)-amide] | – | 101 to 500 nM | 10 to 100 nM | –
18 | CC1CC(O)(CNC(=O)c2cn(C3CCOC3)c3cccc(Cl)c23)CCC1(F)F (centres unmarked) [Compound 106, 4-Chloro-1-(tetrahydro-furan-3-yl)-1H-indole-3-carboxylic acid (4,4-difluoro-1-hydroxy-3-methyl-cyclohexylmethyl)-amide] | – | 101 to 500 nM | 500 to 999 nM | –
19 | CC1(C)CCCC(O)(CNC(=O)c2cn(C3CCOC3)c3cccc(Cl)c23)C1 (centres unmarked) [Compound 107, 4-Chloro-1-(tetrahydro-furan-3-yl)-1H-indole-3-carboxylic acid (1-hydroxy-3,3-dimethyl-cyclohexylmethyl)-amide] | – | 101 to 500 nM | 10 to 100 nM | –
20 | O=C(NCCC1CCCC1)c1cn(C2CCOC2)c2cccc(Cl)c12 (centres unmarked) [Compound 108, 4-Chloro-1-(tetrahydro-furan-3-yl)-1H-indole-3-carboxylic acid (2-cyclopentyl-ethyl)-amide] | – | 101 to 500 nM | 10 to 100 nM | –
21 | C[C@@H](NC(=O)c1cn(C2CCOC2)c2cccc(Cl)c12)C1C[C@H]2CC[C@@H]1C2 (stereo partly drawn) [Compound 109, 4-Chloro-1-(tetrahydro-furan-3-yl)-1H-indole-3-carboxylic acid ((1R,4S)-1-bicyclo[2.2.1]hept-2-yl-ethyl)-amide] | – | 500 to 999 nM | 101 to 500 nM | –
22 | O=C(NCC1CCCC(C(F)(F)F)C1)c1cn(C2CCOC2)c2cccc(Cl)c12 (centres unmarked) [Compound 112, 4-Chloro-1-(tetrahydro-furan-3-yl)-1H-indole-3-carboxylic acid (3-trifluoromethyl-cyclohexylmethyl)-amide] | – | 101 to 500 nM | 10 to 100 nM | –
23 | C[C@@H]1CCC[C@](O)(CNC(=O)c2cn(C3CCOC3)c3cccc(Cl)c23)C1 (stereo partly drawn) [Compound 113, 4-chloro-N-(((1R,3R)-1-hydroxy-3-methylcyclohexyl)methyl)-1-(tetrahydrofuran-3-yl)-1H-indole-3-carboxamide] | – | 10 to 100 nM | 10 to 100 nM | –
24 | O=C(NCC1CCC(F)(F)CC1)c1cn(C2CCOC2)c2cccc(Cl)c12 (centres unmarked) [Compound 114, 4-chloro-N-((4,4-difluorocyclohexyl)methyl)-1-(tetrahydrofuran-3-yl)-1H-indole-3-carboxamide] | – | 101 to 500 nM | 10 to 100 nM | –
25 | O=C(NCC1(O)CCC(F)(F)CC1)c1cn(CC2CCO2)c2cccc(Cl)c12 (centres unmarked) [Compound 115, 4-chloro-N-((4,4-difluoro-1-hydroxycyclohexyl)methyl)-1-(oxetan-2-ylmethyl)-1H-indole-3-carboxamide] | – | 101 to 500 nM | 101 to 500 nM | –
26 | O=C(NCC1CCC(F)(F)CC1)c1cn(CC2CCO2)c2cccc(Cl)c12 (centres unmarked) [Compound 116, 4-chloro-N-((4,4-difluorocyclohexyl)methyl)-1-(oxetan-2-ylmethyl)-1H-indole-3-carboxamide] | – | 10 to 100 nM | 10 to 100 nM | –
27 | O=C(NCC1CCC(F)(F)CC1)c1cn(CC2(O)CC2)c2cccc(Cl)c12 [Compound 117, 4-chloro-N-((4,4-difluorocyclohexyl)methyl)-1-((1-hydroxycyclopropyl)methyl)-1H-indole-3-carboxamide] | – | 101 to 500 nM | 10 to 100 nM | –
28 | CN1CC(n2cc(C(=O)NCC3(O)CCC(F)(F)CC3)c3c(Cl)cccc32)C1 [Compound 118, 4-chloro-N-((4,4-difluoro-1-hydroxycyclohexyl)methyl)-1-(1-methylazetidin-3-yl)-1H-indole-3-carboxamide] | – | 10 to 100 nM | 500 to 999 nM | –
29 | CN1CC(n2cc(C(=O)NCC3CCC(F)(F)CC3)c3c(Cl)cccc32)C1 [Compound 119, 4-chloro-N-((4,4-difluorocyclohexyl)methyl)-1-(1-methylazetidin-3-yl)-1H-indole-3-carboxamide] | – | 101 to 500 nM | 101 to 500 nM | –
30 | O=C(NCC1(O)CCCC(F)(F)C1)c1cn(C2CCNC2)c2cccc(Cl)c12 (centres unmarked) [Compound 120, 4-chloro-N-((3,3-difluoro-1-hydroxycyclohexyl)methyl)-1-(pyrrolidin-3-yl)-1H-indole-3-carboxamide] | – | 10 to 100 nM | 10 to 100 nM | –
31 | O=C(NCC1CCC(F)(F)CC1)c1cn(C2CCNC2)c2cccc(Cl)c12 (centres unmarked) [Compound 121, 4-chloro-N-((4,4-difluorocyclohexyl)methyl)-1-(pyrrolidin-3-yl)-1H-indole-3-carboxamide] | – | 10 to 100 nM | 10 to 100 nM | –
